Assay results: patent publication US20160115540A1, “PRODRUGS AND DRUGS” (Biogen MA Inc., priority 2013, published 2016)
Where a name gives a salt, the structure may show the parent alone.

Tested on: kidney
Experiment: Transcriptional profiling on Affymetrix GeneChips, single dose, naïve mice: kidney
Format: in vivo, C57BL/6 mice
Conditions: 100MMF-vs-Veh
Protocol: Treated mice were sacrificed at 2, 7, or 12 hours. Tissues (liver, spleen, kidney, jejunum, cortex, hippocampus, striatum and whole blood) were collected and analyzed by transcriptional profiling on mouse Affymetrix GeneChips.
Tissues (liver, spleen, kidney, jejunum, cortex, hippocampus, striatum and whole blood) were collected and analyzed by transcriptional profiling on mouse Affymetrix GeneChips.
Animals were exposed to CO2 and whole blood collected via cardiac puncture. Two 100 μl aliquots of whole blood were collected in 1.5 mL microcentrifuge tubes and snap frozen in liquid nitrogen. Peripheral (liver, spleen, kidney and jejunum) and CNS brain (cerebellum, hippocampus, striatum and cortex) tissues were harvested and snap frozen in liquid nitrogen, with special care taken to collect tissues of similar size and from the same location. All samples were stored at −80° C. until RNA extraction was conducted.
For RNA preparation, frozen tissues were placed in 2 mL RNAse-free 96-well blocks with 1.5 mL QIAzol Lysis Reagent (QIAgen) and a 3.2 mm stainless steel bead (BioSpec Products, Bartlesville, Okla.). Tissues were disrupted for four cycles of 45 seconds in a Mini-Beadbeater (Biospec Products). RNA was extracted in chloroform and the aqueous phase was mixed with an equal volume of 70% ethanol. Extracted RNA was applied to RNeasy 96 plates and purified by the spin method according to the manufacturer's protocol (RNeasy 96 Universal Tissue Protocol, QIAgen, Hilden Germany).
Automated sample amplifications and biotin labelings were carried out using the NuGEN Ovation RNA Amplification system V2 (Cat #3100), Ovation WB reagent (Cat #1300) and Encore Biotin module (Cat #4200) (NuGEN Technologies, Inc, San Carlos, Calif.) according to manufacturer's recommendations using an Arrayplex automated liquid handler (Beckman Coulter, Indianapolis, Ind.). Two micrograms of biotin labeled sscDNA probe were hybridized to Affymetrix GeneChip Affymetrix HT_MG-430_PM plate arrays with modified conditions as described in Allaire et al. Washing and staining of the hybridized arrays were completed as described in the GeneChip Expression analysis technical manual for HT plate arrays using the Genechip® Array Station (Affymetrix, Santa Clara, Calif.) with modifications as described in Allaire et al. The processed GeneChip® plate arrays were scanned using GeneTitan scanner (Affymetrix, Santa Clara, Calif.).
Affymetrix scans were subject to quality control (QC) measures. These tests included a visual inspection of the distribution of raw signal intensities and an assessment of RNA degradation, relative log expression (RLE), and normalized unsealed standard error (NUSE). All sample scans that passed these QC metrics were included in the analysis.
All CEL files were subjected to GC-content-based Robust Multi-array Average (GCRMA) normalization (version 2.20.0) (Irizarry R A, et al. Nucleic Acids Res 2003; 31:e15; Li C, et al. Genome Biol 2001; 2:[…]0032). Expression levels were log (base 2) transformed.
All calculations and analyses were carried out using R (version 2.11.1) and Bioconductor computational tools (Gentleman R. Springer Science+Business Media 2005).

With `COC(=O)/C=C/C(=O)O` [MMF, monomethyl fumarate] the “FC Gsr (1421816_PM_at)” value (7 h) was 1.83, the “FC Gsta3 (1423436_PM_at)” value (7 h) was 1.99 and the “FC Gsta3 (1423437_PM_at)” value (7 h) was 2.95. For the same molecule, the “FC Gsta4 1416368_PM_at” value (7 h) was 1.85, the “FC Havcr1 1434716_PM_at” value (7 h) was 3.22 and the “FC Hfe 1450702_PM_at” value (7 h) was 1.57. For the same molecule, the “FC Hist1h2be 1440330_PM_at” value (7 h) was 1.98, the “FC Hist2h3c1 1442051_PM_at” value (7 h) was 1.65 and the “FC Hmox1 1448239_PM_at” value (7 h) was 7.48. For the same molecule, the “FC Hsp90aa1 1426645_PM_at” value (7 h) was 1.50, the “FC Ido2 1425778_PM_at” value (7 h) was −1.52 and the “FC Ikbkg 1421209_PM_s_at” value (7 h) was 1.77. For the same molecule, the “FC Ikbkg 1435646_PM_at” value (7 h) was 1.80, the “FC Ikbkg 1454690_PM_at” value (7 h) was 1.61 and the “FC Il18 1417932_PM_at” value (7 h) was −1.52. The “FC Kif20b 1439695_PM_a_at” value (7 h) was −2.61, the “FC Lcp1 1415983_PM_at” value (7 h) was 1.59 and the “FC Lcp1 1448160_PM_at” value (7 h) was 1.56. For the same molecule, the “FC Lpar2 1442291_PM_at” value (7 h) was 1.84, the “FC Lrp8 (1440882_PM_at)” value (7 h) was 2.19 and the “FC Mctp2 1457707_PM_at” value (7 h) was 1.54. For the same molecule, the “FC Mfsd2a 1428223_PM_at” value (7 h) was −3.38, the “FC Mt1 1422557_PM_s_at” value (7 h) was 1.89 and the “FC Mt2 1428942_PM_at” value (7 h) was 2.71. For the same molecule, the “FC Mthfd2 1419253_PM_at” value (7 h) was 1.89, the “FC Mthfd2 1419254_PM_at” value (7 h) was 1.68 and the “FC Napsa 1430744_PM_at” value (7 h) was −1.79. The “FC Ndrg1 1423413_PM_at” value (7 h) was 1.52, the “FC Ndrg1 1450977_PM_s_at” value (7 h) was 1.54 and the “FC Nmral1 1430530_PM_s_at” value (7 h) was −1.52. For the same molecule, the “FC Nqo1 (1423627_PM_at)” value (7 h) was 1.96, the “FC Nrg1 1456524_PM_at” value (7 h) was 1.81 and the “FC Nudt11 1426887_PM_at” value (7 h) was 1.62. For the same molecule, the “FC Pank1 1457110_PM_at” value (7 h) was −1.79, the “FC Pank2 1452733_PM_at” value (7 h) was −1.94 and the “FC Pard3 1434775_PM_at” value (7 h) was 1.53. For the same molecule, the “FC Pfkfb4 1456888_PM_at” value (7 h) was 1.69, the “FC Pgd 1423706_PM_a_at” value (7 h) was 2.21 and the “FC Pgd 1438627_PM_x_at” value (7 h) was 1.78. The “FC Pgd (1436771_PM_x_at)” value (7 h) was 1.87, the “FC Pgd (1437380_PM_x_at)” value (7 h) was 1.87 and the “FC Pir (1429001_PM_at)” value (7 h) was 2.63. The “FC Ppm1e 1434990_PM_at” value (7 h) was −1.53, the “FC Rab38 1417700_PM_at” value (7 h) was −1.57 and the “FC Rassf6 1429262_PM_at” value (7 h) was 1.65. For the same molecule, the “FC Rdh10 1460632_PM_at” value (7 h) was 1.68, the “FC Rhof 1455902_PM_x_at” value (7 h) was 1.66 and the “FC Rnf24 1436101_PM_at” value (7 h) was −2.03. The “FC Rock2 1451041_PM_at” value (7 h) was 1.60, the “FC Rundc3b 1434456_PM_at” value (7 h) was 1.54 and the “FC Sema3c 1420696_PM_at” value (7 h) was 1.66. For the same molecule, the “FC Slc7a1 1454992_PM_at” value (7 h) was 1.62, the “FC Slc9a8 1454865_PM_at” value (7 h) was −1.68 and the “FC Slc16a6 1417884_PM_at” value (7 h) was 1.55. For the same molecule, the “FC Slc20a1 1448568_PM_a_at” value (7 h) was 1.70, the “FC Slc40a1 1448566_PM_at” value (7 h) was 1.51 and the “FC Slc48a1 1450410_PM_a_at” value (7 h) was 1.58. The “FC Smcp 1418358_PM_at” value (7 h) was −1.96, the “FC Sphk2 1426230_PM_at” value (7 h) was −1.54 and the “FC Sqstm1 1450957_PM_a_at” value (7 h) was 1.62. For the same molecule, the “FC Srxn1 (1419942_PM_at)” value (7 h) was 2.45, the “FC Srxn1 (1425351_PM_at)” value (7 h) was 2.92 and the “FC Srxn1 (1426875_PM_s_at)” value (7 h) was 2.29. The “FC Srxn1 (1451680_PM_at)” value (7 h) was 2.68, the “FC Syn3 1435311_PM_s_at” value (7 h) was −1.68 and the “FC Tardbp 1423723_PM_s_at” value (7 h) was 1.62. The “FC Tcte2 1425009_PM_at” value (7 h) was −1.61, the “FC Tiam2 1423186_PM_at” value (7 h) was 2.27 and the “FC Tmem86a 1428758_PM_at” value (7 h) was −1.56. For the same molecule, the “FC Tnfrsf12a 1418571_PM_at” value (7 h) was 2.40, the “FC Tnfrsf12a 1418572_PM_x_at” value (7 h) was 2.45 and the “FC Trim7 1425743_PM_at” value (7 h) was −1.59. For the same molecule, the “FC Trim7 1439352_PM_at” value (7 h) was −1.55, the “FC Tubb2a 1427347_PM_s_at” value (7 h) was 1.52 and the “FC Txnrd1 1421529_PM_a_at” value (7 h) was 1.72. The “FC Txnrd1 (1424486_PM_a_at)” value (7 h) was 3.08, the “FC Txnrd1 (1424487_PM_x_at)” value (7 h) was 2.37 and the “FC Upp2 1424969_PM_s_at” value (7 h) was −3.63. For the same molecule, the “FC Upp2 1451548_PM_at” value (7 h) was −4.00, the “FC Uxs1 1426275_PM_a_at” value (7 h) was 1.50 and the “FC Vwa1 1426399_PM_at” value (7 h) was −1.69. The “FC Wdr90 1426767_PM_at” value (7 h) was −1.58, the “FC Wnt5a 1436791_PM_at” value (7 h) was 1.69 and the “FC Wnt5a 1448818_PM_at” value (7 h) was 1.81. For the same molecule, the “FC Acot1 /// Acot2 1422997_PM_s_at” value (12 h) was 1.51, the “FC Aldh1a1 1416468_PM_at” value (12 h) was 2.21 and the “FC Aldh1a7 (1418601_PM_at)” value (12 h) was 3.02. The “FC Aox1 (1419435_PM_at)” value (12 h) was 2.23, the “FC Arg2 1418847_PM_at” value (12 h) was 2.70 and the “FC Atp11a 1421167_PM_at” value (12 h) was −1.62. For the same molecule, the “FC C1qtnf3 1422606_PM_at” value (12 h) was −1.57, the “FC Cyp51 1422533_PM_at” value (12 h) was −1.95 and the “FC Cyp51 1422534_PM_at” value (12 h) was −1.79. The “FC Egln3 1418649_PM_at” value (12 h) was 1.71, the “FC G6pd2 /// G6pdx 1422327_PM_s_at” value (12 h) was 1.91 and the “FC Gbe1 1420654_PM_a_at” value (12 h) was 1.51. The “FC Gdf15 1418949_PM_at” value (12 h) was 2.01, the “FC Gm3776 /// Gsta1 /// Gsta2 1421041_PM_s_at” value (12 h) was 1.68 and the “FC Gpr19 1421756_PM_a_at” value (12 h) was 1.50. The “FC Gsta2 (1421040_PM_a_at)” value (12 h) was 1.61, the “FC Gsta3 (1423436_PM_at)” value (12 h) was 1.95 and the “FC Gsta3 (1423437_PM_at)” value (12 h) was 2.85. For the same molecule, the “FC Gsta4 1416368_PM_at” value (12 h) was 1.95.
